# Assay results reported in PMC9826432 (Environmental Toxicology and Chemistry, 2022).
# Legend:
# [1] = molecular target: T1, human estrogen receptor α (ERα) (Homo sapiens, UniProt P03372); assay: ERα‐CALUX human cell-based reporter gene assay; conditions: based on PC10 values, 3 replicates, considering molecular weights
# T1 sequence (P03372 1-595): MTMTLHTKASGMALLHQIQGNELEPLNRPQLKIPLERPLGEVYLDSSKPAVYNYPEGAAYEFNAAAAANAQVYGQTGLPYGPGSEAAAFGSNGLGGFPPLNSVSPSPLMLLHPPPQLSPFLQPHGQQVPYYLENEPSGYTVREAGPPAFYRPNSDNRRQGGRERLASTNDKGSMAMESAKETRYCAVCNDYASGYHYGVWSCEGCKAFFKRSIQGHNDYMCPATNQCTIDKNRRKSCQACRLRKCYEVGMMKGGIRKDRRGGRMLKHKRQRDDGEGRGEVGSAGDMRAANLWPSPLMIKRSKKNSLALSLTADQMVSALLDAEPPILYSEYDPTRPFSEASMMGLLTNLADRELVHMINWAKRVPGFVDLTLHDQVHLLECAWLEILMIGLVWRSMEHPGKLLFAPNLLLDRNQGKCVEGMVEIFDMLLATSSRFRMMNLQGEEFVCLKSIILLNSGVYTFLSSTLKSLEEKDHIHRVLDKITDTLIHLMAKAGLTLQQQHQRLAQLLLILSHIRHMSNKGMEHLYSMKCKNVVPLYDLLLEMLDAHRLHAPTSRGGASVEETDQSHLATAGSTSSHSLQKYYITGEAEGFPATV
# [2] = molecular target: T1, human estrogen receptor α (ERα); assay: lyticase Yeast Estrogen Screen; format: cell-based; conditions: L‐YES; based on PC10 values, 3 replicates, considering molecular weights
# aquatic organisms = conditions: threshold for effluents, tenfold dilution assumed; ref Loos et al., 2018; cited from earlier work
SMILES,REP (relative estrogenic potency in comparison to 17β‐estradiol) [1],REP (relative estrogenic potency in comparison to 17β‐estradiol) [2],10× diluted PNEC (aquatic organisms) [ng/L]
"CC(C)(c1ccc(O)cc1)c1ccc(O)cc1 [BPA, bisphenol A]",4.2E−05,4.5E−05,–
"C#C[C@]1(O)CC[C@H]2[C@@H]3CCc4cc(O)ccc4[C@H]3CC[C@@]21C [EE2, 17α‐ethinylestradiol]",–,–,0.35
